Test results reported in patent publication US12281125B2, “Rapamycin derivatives” (NOVARTIS AG, priority 2018, dated 2025).

Key:
[1] = system: mTORC1 activity, S6K1 (Thr389) in FKBP12 knock-out 293T cells; experiment: S6K1(Thr389) phosphorylation ELISA in FKBP12 knock-out 293T cells; type: cell-based; settings: 2 hours
Source text: A CRISPR/Cas9 system was used to deliver ribonucleoprotein complexes containing guide RNA (gRNA) sequences that target FKBP12
([…], location 35620248) into 293T cells, using the Amaxa® 4D-Nucleofector™ X Kit (Lonza, V4XC-2032). Cell clones were screened by immunoblotting with anti-FKBP-specific antibodies: FKBP12 (Novus, NB300-508), FKBP12.6 (Abnova, H00002281-M01), FKBP13 (R&D Systems, MAB4356), FKBP25 (R&D Systems, MAB3955), FKBP52 (Cell signaling Technology, #11826) and FKBP51 (Cell signaling Technology, #12210). […] Quintuple FKBP12/12.6/13/52/51 knock-out and FKBP12/12.6/25/52/51 knock-out cells were generated by sequentially knocking out five FKBP genes.
(§1) WT, FKBP12 knock-out, FKBP12/12.6/13/52/51 knock-out or FKBP12/12.6/25/52/51 knock-out 293T cells were plated at a density of 30,000 cells per well in poly-D-Lysine coated 96-well plates (Corning, #354461) in Dulbecco's modified Eagle's medium (ThermoFisher, #11995-065) supplemented with 10% fetal bovine serum (ThermoFisher, #16140-071). Cells were incubated at 37° C., 5% CO2 for 48 hours until they reached ˜80% confluence. […] Media supplemented with blank Dimethyl sulfoxide (DMSO) was used as a control for both compounds. Phosphorylated amounts of S6K1 (Thr389) were detected by a sandwich ELISA kit (Cell signaling, #7063C) following the manufacture's protocol.

[2] = molecular target: T1, FKBP25-rapalog-mTOR (amino acids 2019-2112) ternary complex (Homo sapiens, UniProt P42345+Q00688); experiment: SPR ternary complex formation, rapalog bound to FKBP25 with mTOR; type: binding; settings: rapalog bound to FKBP with mTOR, read-out: FKBP25 apparent affinity KD for ternary complex formation
T1 construct: his^6-mTOR (amino acids 2019-2112) was diluted in buffer; made in house; host or cells: E. coli
Experimental: (§2) N-terminal avi-his6-tagged FKBP fusion proteins were expressed in E. coli and purified with nickel chromatography using standard procedures. Biotinylated his-avi-FKBPs were immobilized on a streptavidin chip using a Biacore 8K (GE Healthcare). To determine the kinetics-affinity of the rapalogs for FKBPs, rapalogs were diluted in DMSO to 50× working concentration. Next, 3.1 uLs of each rapalog solution was added to 150 uLs of buffer (50 mM Tris pH 7.5/150 mM NaCl/0.01% Tween 20/1 mM DTT) in a 384 deep well plate (greiner bio-one/78127) and mixed using a Biomek FX. The rapalog solution gradients (6 concentrations/2 fold dilutions, 3.1-100 nM or 31-1000 nM or 310-10000 nM) were then injected at 45 uL/min for 120 seconds: contact time and dissociation time was 1800 seconds in running buffer (50 mM Tris pH 7.5/150 mM NaCl/0.01% Tween 20/1 mM DTT/2% DMSO). The single-cycle kinetics data were fit to a 1:1 binding model to measure the association rate ka (1/Ms), the dissociation rate kd (1/s) and the affinity KD (M). […] 3.1 uLs of the 500 μM rapalog solutions were added to 150 uLs of the mTOR samples in a 384 deep well plate (greiner bio-one/78127) and mixed using a Biomek FX. The mTOR solution gradients were then injected at 45 uL/min for 120 seconds: contact time and dissociation time was 1800 seconds in running buffer (50 mM Tris pH 7.5/150 mM NaCl/0.01% Tween 20/1 mM DTT/2% DMSO). […]

[3] = molecular target: T2, FKBP13-rapalog-mTOR (amino acids 2019-2112) ternary complex (Homo sapiens, UniProt P26885+P42345); experiment: SPR ternary complex formation, rapalog bound to FKBP13 with mTOR; type: binding; settings: rapalog bound to FKBP with mTOR, read-out: FKBP13 apparent affinity KD for ternary complex formation
T2 construct: his^6-mTOR (amino acids 2019-2112) was diluted in buffer; made in house; host or cells: E. coli
Experimental: as §2

[4] = molecular target: T3, FKBP12-rapalog-mTOR (amino acids 2019-2112) ternary complex (Homo sapiens, UniProt P42345+P62942); experiment: SPR ternary complex formation, rapalog bound to FKBP12 with mTOR; type: binding; settings: rapalog bound to FKBP with mTOR, read-out: FKBP12 apparent affinity KD for ternary complex formation
T3 construct: his^6-mTOR (amino acids 2019-2112) was diluted in buffer; made in house; host or cells: E. coli
Experimental: as §2

[5] = system: mTORC1 activity, S6K1 (Thr389) in WT 293T cells; experiment: S6K1(Thr389) phosphorylation ELISA in wild-type 293T cells; type: cell-based; settings: 2 hours
Experimental: as §1
S6K1 is a downstream target of mTORC1 and phosphorylation of its rapalog-sensitive Thir389 site is used as a functional readout of mTORC1 activity (Lee, C. H., Inoki, K. and Guan, K. L. (2007). mTOR pathway as a target in tissue hypertrophy. Annu. Rev. Pharmacol. Toxicol. 47, 443-467).

[6] = molecular target: T4, FKBP51 (Homo sapiens, UniProt Q13451); experiment: SPR assay, binding affinity to FKBP51; settings: equilibrium dissociation constant
T4 construct: made in house; host or cells: E. coli
T4 sequence (Q13451 1-457): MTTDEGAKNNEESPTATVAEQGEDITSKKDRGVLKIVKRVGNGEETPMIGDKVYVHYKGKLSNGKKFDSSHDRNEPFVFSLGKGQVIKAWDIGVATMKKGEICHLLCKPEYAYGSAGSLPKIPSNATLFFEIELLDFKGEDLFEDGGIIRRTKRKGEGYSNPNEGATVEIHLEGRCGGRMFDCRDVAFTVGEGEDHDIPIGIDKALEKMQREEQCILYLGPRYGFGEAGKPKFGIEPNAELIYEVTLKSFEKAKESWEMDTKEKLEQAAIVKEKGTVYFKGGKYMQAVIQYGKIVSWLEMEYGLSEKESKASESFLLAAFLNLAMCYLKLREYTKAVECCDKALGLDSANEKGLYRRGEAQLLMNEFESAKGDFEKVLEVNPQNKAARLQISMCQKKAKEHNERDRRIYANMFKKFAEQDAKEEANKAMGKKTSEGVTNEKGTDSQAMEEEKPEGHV
Source text: N-terminal avi-his6-tagged FKBP fusion proteins were expressed in E. coli and purified with nickel chromatography using standard procedures. Biotinylated his-avi-FKBPs were immobilized on a streptavidin chip using a Biacore 8K (GE Healthcare). […] The single-cycle kinetics data were fit to a 1:1 binding model to measure the association rate ka (1/Ms), the dissociation rate kd (1/s) and the affinity KD (M). […] The single-cycle kinetics data was fit to a 1:1 binding model to measure the association rate ka (1/Ms), the dissociation rate kd (1/s) and the apparent affinity KD (M) for ternary complex formation. The equilibrium dissociation constants (KD) to FKBP12, FKBP51, and FKBP52 are shown below in Table 6.

T1 sequence (Q00688 whole entry, the tested form may be a part): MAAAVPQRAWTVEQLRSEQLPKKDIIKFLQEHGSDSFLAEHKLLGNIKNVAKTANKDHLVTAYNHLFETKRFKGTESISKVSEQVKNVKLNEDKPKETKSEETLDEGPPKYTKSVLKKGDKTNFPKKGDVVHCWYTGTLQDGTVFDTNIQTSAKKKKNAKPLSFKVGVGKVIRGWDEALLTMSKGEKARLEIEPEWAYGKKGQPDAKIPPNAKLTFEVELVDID
T1 sequence (P42345 2019-2112 limits assumed): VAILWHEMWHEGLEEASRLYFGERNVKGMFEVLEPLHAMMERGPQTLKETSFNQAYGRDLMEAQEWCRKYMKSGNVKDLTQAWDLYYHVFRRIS
T2 sequence (P26885 22-142): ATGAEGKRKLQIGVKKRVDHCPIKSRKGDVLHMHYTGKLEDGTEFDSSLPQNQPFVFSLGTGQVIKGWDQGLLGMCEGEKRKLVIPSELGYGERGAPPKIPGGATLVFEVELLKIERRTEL
T2 sequence (P42345 2019-2112 limits assumed): as the sequence (P42345 2019-2112 limits assumed) above
T3 sequence (P62942 whole entry, the tested form may be a part): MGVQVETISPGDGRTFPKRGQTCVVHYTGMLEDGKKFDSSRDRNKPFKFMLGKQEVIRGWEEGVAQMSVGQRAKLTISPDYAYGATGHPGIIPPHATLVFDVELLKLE
T3 sequence (P42345 2019-2112 limits assumed): as the sequence (P42345 2019-2112 limits assumed) above

Kd [2] | Kd [3] | Kd [4] | Kd [6] | Compound | de-phosphorylation of S6K1(Thr389) [1] | inhibition of S6K1(Thr389) phosphorylation [5]
0.002 µM | 0.127 µM | 0.025 µM | 0.144 µM | CO[C@@H]1C[C@H](C[C@@H](C)[C@@H]2CC[C@H](C)/C=C(\C)[C@@H](O)[C@@H](OC)C(=O)[C@H](C)C[C@H](C)/C=C/C=C/C=C(\C)[C@@H](NS(C)(=O)=O)C[C@@H]3CC[C@@H](C)[C@@](O)(O3)C(=O)C(=O)N3CCCC[C@H]3C(=O)O2)CC[C@H]1O [Compound 2] | ~70% | ~80%
0.075 µM | 0.021 µM | 0.021 µM | 0.811 µM | CO[C@H]1C[C@@H]2CC[C@@H](C)[C@@](O)(O2)C(=O)C(=O)N2CCCC[C@H]2C(=O)O[C@H]([C@H](C)C[C@@H]2CC[C@@H](OCCO)[C@H](OC)C2)CC(=O)[C@H](C)/C=C(\C)[C@@H](O)[C@@H](OC)C(=O)[C@H](C)C[C@H](C)/C=C/C=C/C=C/1C [RAD001, everolimus, reference compound] | ~40% | ~80%
